These are literature values, as cited in patent US20140186456A1, “Tripartite Bioactive Composition Providing Anti-Oxidant and Anti-Inflammatory Effects with Immune System and Stem Cell Production Enhancement” (priority 2011, published 2014).

The data set relates to organisms and animal species.

On to `Oc1ccc(/C=C/c2cc(O)cc(O)c2)cc1` [resveratrol, 3,5,4′-trihydroxy-trans-stilbene], for which the increase of lifespan was 20-40%.
